From patent US8513301B2, “Kind of piperphentonamine hydrochloride lyophilized powder for injection and preparation and use thereof” (Guangzhou Zhongwei Biotechnology Ltd., priority 2007, dated 2013)

Assays:
[1] = tested on: myocardial ischemia-reperfusion injury in cats; assay: Myocardial ischemia-reperfusion injury in cats in vivo (coronary artery arrest 30 min, reperfusion 60 min); design: species or system cat; conditions: 1.3 mg/kg
Experimental: In order to further evaluate the protective effect of PPTA on myocardium injured by ischemia-reperfusion, a pathological model of myocardial ischemia-reperfusion injury in cats in vivo was established by arrest the coronary artery for 30 min, then reperfusion for 60 min, studying the effects on blood biochemistry, myocardium ultrastructure, etc.

[2] = target: T1, cTnC isolated from cattle cardiac muscle (Bos taurus, UniProt P63315); assay: Affinity of Ca^2+ to cTnC by fluorescent probe dansyl chloride labeling; type: binding; conditions: for Influence on the affinity curve of cTnC to Ca^2+: 50 μmol/L; for Effect on the cTnC-Ca^2+ affinity curve: 55 μmol/L (FIG. 4)
T1 construct: cTnC isolated from cattle cardiac muscle; from tissue; host or cells: cattle cardiac muscle
Source text: The effect of PPTA-I on the affinity of Ca^2+ to cTnC isolated from cattle cardiac muscle was studied by fluorescent probe dansyl chloride labeling to discuss the calcium sensitization mechanisms of piperphentonamine hydrochloride, and compared the results to the already known calcium sensitizers MCI-154 and sulmazole (Sul).

[3] = tested on: cat heart failure model induced by verapamil; assay: Cardiac hemodynamic parameters in cat heart failure model induced by verapamil, intravenous administration; type: in vivo; conditions: 0.1 mg/kg; for +dP/dt max, Change, % / Cardiac contractility, Change % / HR, Change % / LVEDP, Change, % / LVSP, Change, % / MAP, Change % / −dP/dt max, Change, %: vs. baseline
Experimental: To study the therapeutic effect of the novel cardiotonic and vasodilator PPTA-I on heart failure, the cardiac hemodynamic parameters were determined by a polygraph in cat heart failure model induced by verapamil.

[4] = Solubility and stability of piperphentonamine hydrochloride in water for injection; type: physicochemical
Source text: Piperphentonamine hydrochloride with the molecular formula C21H23NO4.HCl has a molecular weight of […], batch No. 2001803, provided by Guangzhou Zhongwei Biotechnology Ltd Company. Its preparation method is described in Chinese patent No. 02125318.8. […] In order to achieve the lyophilized powder for injection with good redissolving ability and stability, piperphentonamine hydrochloride and excipient need to be dissolved in water for injection with pH 1.5 to 5.5 and then lyophilized, especially preferred water for injection with pH 2 to 3.

[5] = conventionally known; cited from earlier work
[6] = treated by sonication and heating

## COc1ccc(CCN(C)CCCC(C#N)(c2ccc(OC)c(OC)c2)C(C)C)cc1OC (stereo not drawn) [verapamil]
[1]; injury control 2.5 ± 0.55
  Score of myocardium pathological change: 1.3 ± 0.18
[1]; serum, injury control 2.3 ± 0.62
  Content of cTnI: 1.4 ± 0.21
[1]; serum, injury control 86 ± 17
  Content of MDA: 65 ± 12 nmol/L
[1]; serum, injury control 385 ± 75
  CPK activity: 271 ± 80

## COc1cc([S+](C)[O-])ccc1-c1nc2ncccc2[nH]1 (stereo not drawn) [Sul, sulmazole]
[2]
  Influence on the affinity curve of cTnC to Ca^2+: no significant influence
  Effect on the cTnC-Ca^2+ affinity curve: no significant effect

## Cc1[nH]c(=O)c(C#N)cc1-c1ccncc1 [Milrinone]
[3]
  +dP/dt max increased by at most: 61±26%
  Effect on HRs: did not affect
  Effect on LVSP, LVEDP and −dP/dt max: without changing
  MAP decreased by: 10%
  Period of +dP/dt max increase: over 20 minutes
  Period of the effect on MAP and cardiac contractility: 5 min
[3]; 2 min
  +dP/dt max, Change, %: 18 ± 23 %
  Cardiac contractility, Change %: 38 ± 32 # %
  HR, Change %: 0 ± 5%
  LVEDP, Change, %: 1 ± 2%
  LVSP, Change, %: 4 ± 11%
  MAP, Change %: −4 ± 4 %
  −dP/dt max, Change, %: 0 ± 23%
[3]; 5 min
  +dP/dt max, Change, %: 52 ± 24 ### %
  Cardiac contractility, Change %: 92 ± 80 # %
  HR, Change %: 2 ± 15%
  LVEDP, Change, %: 5 ± 16%
  LVSP, Change, %: 5 ± 15%
  MAP, Change %: −10 ± 8 # %
  −dP/dt max, Change, %: 3 ± 19%
[3]; 10 min
  +dP/dt max, Change, %: 61 ± 26 ### %
  Cardiac contractility, Change %: 71 ± 78 %
  HR, Change %: 2 ± 16%
  LVEDP, Change, %: −1 ± 5%
  LVSP, Change, %: 6 ± 17%
  MAP, Change %: −10 ± 6 ## %
  −dP/dt max, Change, %: 11 ± 20%
[3]; 15 min
  +dP/dt max, Change, %: 54 ± 33 ## %
  Cardiac contractility, Change %: 58 ± 74 %
  HR, Change %: 3 ± 16%
  LVEDP, Change, %: −7 ± 16%
  LVSP, Change, %: 3 ± 18%
  MAP, Change %: −10 ± 8 # %
  −dP/dt max, Change, %: 8 ± 23%
[3]; 20 min
  +dP/dt max, Change, %: 61 ± 45 # %
  Cardiac contractility, Change %: 61 ± 69 %
  HR, Change %: −13 ± 37%
  LVEDP, Change, %: 2 ± 11%
  LVSP, Change, %: 4 ± 22%
  MAP, Change %: −8 ± 12%
  −dP/dt max, Change, %: −4 ± 22%

## piperphentonamine hydrochloride
[2]; 15 μmol/L
  Shift of cTnC-Ca^2+ affinity curve: slightly shifted to the left without statistical significance
[2]; 35 μmol/L
  Shift of cTnC-Ca^2+ affinity curve: shifted to the left with statistical significance
[2]; 55 μmol/L (FIG. 3)
  Shift of cTnC-Ca^2+ affinity curve to the left compared with the control curve: 0.2 pCa
[4]; easy to degrade and turn yellow
  Stability in water for injection: not stable
[4]; [6]
  Solubility in water for injection with pH 1.5 to 5.5: easy to be dissolved
  pH of water for injection with the best solubility and stability: 2 to 3
[4]; untreated
  Solubility in water for injection: difficult to be dissolved
[5]
  Solubility in water: insoluble or poor soluble in water

## O=C1CCC(c2ccc(Nc3ccncc3)cc2)=NN1 [MCI-154]
[2]
  Influence on the affinity curve of cTnC to Ca^2+: no significant influence
  Effect on the cTnC-Ca^2+ affinity curve: no significant effect
